Laboratory results as given in US5475012A, “N-cyanoamidine derivatives as anti-influenza agents” (priority 1994, dated 1995).
Values after ≈ are worked out from the molar mass of the structure shown.

What was measured:
in vitro [1] = conditions: dog, mdck
in vitro [2] = conditions: human, a549 cells
FluA/LA = assay: microbe, parasite or virus in culture; assay type: cell-based, influenza A virus; conditions: for IC50: Influenza A virus, in Gallus gallus, read-out: Median Inhibiting Concentration (IC50), FluA/LA; for activity against A/LA (in words): strain specificity
in vitro [3] = conditions: human, mrc-5 cells
FluB/Yama = assay: microbe, parasite or virus in culture; assay type: cell-based, influenza B virus; conditions: for IC50: Influenza B virus, read-out: Median Inhibiting Concentration (IC50), FluB/Yama; for activity against B/Yama (in words): strain specificity
in vitro [4] = conditions: human, hep-2 cells
in vitro [5] = conditions: african green monkey, vero cells
FluA/Kaw = assay: microbe, parasite or virus in culture; assay type: cell-based, influenza A virus; conditions: for IC50: Influenza A virus, in Gallus gallus, read-out: Median Inhibiting Concentration (IC50), FluA/Kaw; for activity against A/Kaw (in words): strain specificity
FluA/WSN = assay: Anti-influenza A activity, FluA/WSN (cytopathic effect, crystal violet stain, MDCK cells); assay type: cell-based, influenza A virus; conditions: for IC50: Influenza A virus, WSN, Table II, tested in MDCK cells, read-out: Median Inhibiting Concentration (IC50), FluA/WSN; for activity against A/WSN (in words): strain specificity

Row | SMILES | MCC (in vitro [1]) [µg/mL] | MCC (in vitro [2]) [µg/mL] | IC50 (FluA/LA) [µg/mL] | MCC (in vitro [3]) [µg/mL] | IC50 (FluB/Yama) [µg/mL] | MCC (in vitro [4]) [µg/mL] | MCC (in vitro [5]) [µg/mL] | IC50 (FluA/Kaw) [µg/mL] | IC50 (FluA/WSN) [µg/mL] | activity against A/LA (in words) (FluA/LA) | activity against B/Yama (in words) (FluB/Yama) | activity against A/Kaw (in words) (FluA/Kaw) | activity against A/WSN (in words) (FluA/WSN)
1 | NC12CC3CC(CC(C3)C1)C2 [Amantadine, reference compound] | > 100 | > 100 | 0.16 (≈ 1.06 µM) | > 100 | > 16 | > 100 | > 100 | 0.5 to 1.6 (≈ 3.31 to 10.6 µM) | 16 (≈ 106 µM) |  |  |  | 
2 | CC(Cc1ccccc1)(C(=NC#N)NCCc1ccccc1)c1ccccn1 (stereo not drawn) [Example 1, N'-Cyano-α-methyl-N-(2-phenylethyl)-α-(phenylmethyl)-2-pyridineethanimidamide] | > 50 | > 50 | > 16 | > 50 | > 16 | > 50 | > 50 | 0.5 to 1.6 (≈ 1.36 to 4.34 µM) | 0.16 to 0.5 (≈ 0.434 to 1.36 µM) | inactive | inactive | active | active
3 | CC(Cc1ccccc1)(C(=NC#N)NCc1ccco1)c1ccccn1 (stereo not drawn) [Example 2, N'-Cyano-N-(2-furanylmethyl)-α-methyl-α-(phenylmethyl)-2-pyridineethanimidamide] | > 50 | > 50 | > 16 | > 50 | > 16 | > 50 | > 50 | 0.5 to 1.6 (≈ 1.45 to 4.65 µM) | 0.16 to 0.5 (≈ 0.465 to 1.45 µM) | inactive | inactive | active | active
4 | NC(=O)c1ncn([C@@H]2O[C@H](CO)[C@@H](O)[C@H]2O)n1 [Ribavirin, reference compound] | > 100 | > 100 | > 16 | > 100 | 1.6 to 5 (≈ 6.55 to 20.5 µM) | > 100 | > 100 | > 16 | 1.6 to 5 (≈ 6.55 to 20.5 µM) |  |  |  | 
5 | CSC(=NC#N)NCCSCc1cccnc1Nc1ccccc1 [Example 3, N'-cyano-N-[2-[[[2-(phenylamino)-3-pyridinyl]methyl]thio]ethyl]carbamimidothioic acid methyl ester] | > 100 | > 100 |  | > 100 |  | > 100 | > 100 |  |  |  |  |  | 
